Results from ChEMBL document CHEMBL2424588, “Four-membered heterocycles-containing 4-anilino-quinazoline derivatives as epidermal growth factor receptor (EGFR) kinase inhibitors” (Bioorg Med Chem Lett, 2013).
≈ marks a conversion by molar mass, not a printed value.

Columns and labels:
[1] = Aqueous solubility of the compound at 20 degC; type: physicochemical; settings: water
[2] = Cytotoxicity against human HCC827 cells after 72 hrs by CCK-8 assay; type: functional, cell-based; settings: HCC827, 72 h
A549 = assay: Cytotoxicity against human A549 cells after 72 hrs by CCK-8 assay; type: functional, cell-based; settings: A549, 72 h
[3] = target: Epidermal growth factor receptor (Homo sapiens, UniProt P00533); assay: Inhibition of wild type EGFR (unknown origin) after 24 hrs by fluorescence assay
Epidermal growth factor receptor, sequence (P00533 whole entry): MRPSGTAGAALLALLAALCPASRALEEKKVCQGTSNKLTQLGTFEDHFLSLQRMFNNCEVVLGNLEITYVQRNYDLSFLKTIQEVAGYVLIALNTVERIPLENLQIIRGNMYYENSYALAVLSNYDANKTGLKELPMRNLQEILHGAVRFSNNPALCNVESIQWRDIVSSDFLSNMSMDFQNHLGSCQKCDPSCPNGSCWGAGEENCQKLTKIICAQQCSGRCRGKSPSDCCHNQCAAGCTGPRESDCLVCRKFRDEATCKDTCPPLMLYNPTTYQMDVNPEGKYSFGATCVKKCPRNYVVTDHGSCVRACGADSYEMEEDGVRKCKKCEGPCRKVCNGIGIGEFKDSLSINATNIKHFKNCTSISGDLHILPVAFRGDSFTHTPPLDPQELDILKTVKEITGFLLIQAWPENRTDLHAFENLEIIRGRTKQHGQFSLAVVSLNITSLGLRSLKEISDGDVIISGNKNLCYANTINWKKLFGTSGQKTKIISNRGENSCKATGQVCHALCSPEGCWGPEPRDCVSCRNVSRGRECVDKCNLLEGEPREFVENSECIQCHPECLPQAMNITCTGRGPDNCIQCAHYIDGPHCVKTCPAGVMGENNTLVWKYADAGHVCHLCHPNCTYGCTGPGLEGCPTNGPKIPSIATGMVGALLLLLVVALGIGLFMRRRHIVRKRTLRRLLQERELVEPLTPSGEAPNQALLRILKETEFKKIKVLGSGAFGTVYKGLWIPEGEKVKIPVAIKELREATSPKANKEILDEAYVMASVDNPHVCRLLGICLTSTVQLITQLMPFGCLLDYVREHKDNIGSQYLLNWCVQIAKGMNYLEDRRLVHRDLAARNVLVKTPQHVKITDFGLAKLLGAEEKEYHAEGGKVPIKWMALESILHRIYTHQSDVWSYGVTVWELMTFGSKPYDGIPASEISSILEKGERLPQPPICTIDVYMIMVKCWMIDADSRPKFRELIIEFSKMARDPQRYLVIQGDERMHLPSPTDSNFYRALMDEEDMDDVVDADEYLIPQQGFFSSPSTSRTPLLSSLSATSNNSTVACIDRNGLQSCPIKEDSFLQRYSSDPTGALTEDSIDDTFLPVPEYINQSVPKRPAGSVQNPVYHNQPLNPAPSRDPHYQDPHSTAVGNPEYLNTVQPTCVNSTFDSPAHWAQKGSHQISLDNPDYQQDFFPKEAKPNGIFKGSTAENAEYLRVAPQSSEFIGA

Row | Compound | solubility [1] | IC50 [2] | IC50 (A549) | IC50 [3]
1 | COc1cc2ncnc(Nc3ccc(F)c(Cl)c3)c2cc1OCCN1CC2(CCO2)C1 | < 1 µg/mL | 23 nM | > 50000 nM | 190 nM
2 | COc1cc2ncnc(Nc3ccc(F)c(Cl)c3)c2cc1OCCCN1CC2(CCO2)C1 | 1.2 µg/mL (≈ 2.61 µM) | 39 nM | 25700 nM | 36 nM
3 | COc1cc2ncnc(Nc3ccc(F)c(Cl)c3)c2cc1OCCN1CC(O)C1 |  | 116 nM | > 50000 nM | 26 nM
4 | COc1cc2ncnc(Nc3ccc(F)c(Cl)c3)c2cc1OCCN1CC2(COC2)C1 | 1.4 µg/mL (≈ 3.15 µM) | 16 nM | > 50000 nM | 16 nM
5 | COc1cc2ncnc(Nc3ccc(F)c(Cl)c3)c2cc1OCCCN1CC2(COC2)C1 | 28.3 µg/mL (≈ 61.7 µM) | 69 nM | 31800 nM | 56 nM
6 | COc1cc2ncnc(Nc3ccc(F)c(Cl)c3)c2cc1OCCN1CC2(C1)CS(=O)(=O)C2 | < 1 µg/mL | 154 nM | > 50000 nM | 158 nM
7 | COc1cc2ncnc(Nc3ccc(F)c(Cl)c3)c2cc1OCCN1CC2(CSC2)C1 | < 1 µg/mL | 51 nM | 4800 nM | 52 nM
8 | COc1cc2ncnc(Nc3ccc(F)c(Cl)c3)c2cc1OCCN1CC(OC)C1 |  | 64 nM | > 50000 nM | 94 nM
9 | COc1cc2ncnc(Nc3ccc(F)c(Cl)c3)c2cc1OCCCN1CC(OC)C1 |  | 42 nM | 25100 nM | 34 nM
10 | COc1cc2ncnc(Nc3ccc(F)c(Cl)c3)c2cc1OCCCN1CCOCC1 [GEFITINIB] | 2.1 µg/mL (≈ 4.7 µM) |  |  | 
11 | COc1cc2ncnc(Nc3ccc(F)c(Cl)c3)c2cc1OCCCN1CC2(C1)CS(=O)(=O)C2 | 72.3 µg/mL (≈ 143 µM) | 389 nM | 25200 nM | 24 nM
12 | COc1cc2ncnc(Nc3ccc(F)c(Cl)c3)c2cc1OCCCN1CC2(CSC2)C1 | 25.6 µg/mL (≈ 53.9 µM) | 50 nM | 9500 nM | 48 nM
13 | COc1cc2ncnc(Nc3ccc(F)c(Cl)c3)c2cc1OCCCN1CCC2(COC2)C1 | 33.8 µg/mL (≈ 71.5 µM) | 28 nM | > 50000 nM | 
14 | COc1cc2ncnc(Nc3ccc(F)c(Cl)c3)c2cc1OCCCN1CC(O)C1 |  | 352 nM | > 50000 nM | 25 nM
